Source: patent US4389412A, “Substituted cyclopropanecarboxylic acid esters and pesticidal compositions containing the same as active ingredient” (priority 1979, dated 1983)
Values after ≈ are worked out from the molar mass of the structure shown. Read-outs that look alike come from different tables or passages of the source.

How the values were obtained:
[1] = test system: rice stem borers (Chilo suppressalis Walker); test: Mortality test with rice stem borers by topical application method; format: in vivo; details: 24 h; for mortality at 0.001 mg: read-out: Pesticidal effect, rice stem borer
Protocol: Mortality test with rice stem borers (Chilo suppressalis Walker) by topical application method
Using a microsyringe, 0.5 μl of the above solution was applied to the thoracic abdominal region of each final-instar larva of rice stem borer (Chilo suppressalis Walker). […] The test larvae were used in groups of 20 individuals each.

[2] = Fish toxicity test with carp; format: in vivo, Cyprinus carpio L; details: carp, water, 48 hrs., 21±1° C.; read-out: TLm, Carp (48 hrs.)
Protocol: Fish toxicity test with carp (Cyprinus carpio L)
An acetone solution of one of the test compounds as mentioned in Table 10 and Tween-20 (the same surfactant as mentioned hereinbefore) was prepared. To 50 liters of water (30 cm deep) in a glass tank was added the above acetone solution. The mixture was stirred thoroughly to prepare an aqueous solution containing the test compound in a predetermined concentration. This was used as a test water. Five carps (Cyprinus carpio L) with a body weight of about 6 g and a body length of about 6 cm were released into each test water which was maintained at 21±1° C. After 48 hours, the test fish was examined for death. The TLm (median tolerance limit, ppm) was determined. The test water was moderately aerated.

[3] = Toxicity test with water-fleas; format: in vivo, Daphnia pulex; details: water, 25±1° C., read-out: TLm, Water-flea (6 hrs.)
Protocol: Toxicity test with water-fleas (Daphnia pulex)
An acetone solution of one of the test compounds as mentioned in Table 10 and Tween-20 (the same surfactant as mentioned hereinbefore) was prepared. To 100 ml of water in a high-walled dish (9 cm in diameter, 7 cm deep) was added the above acetone solution. The mixture was stirred thoroughly to prepare an aqueous solution containing the test compound in a predetermined concentration. This was used as a test water. Twenty water-fleas (Daphnia pulex) were released into each test water which was maintained at 25±1° C. After 6 hours, the water-fleas were examined for deaths. The TLm (median tolerance limit, ppm) was determined.

carp and water flea = test: Fish toxicity ranking according to Japanese regulations; set-up: species or system Cyprinus carpio L; Daphnia pulex; details: from TLm for carp and water flea
Protocol: The above ranking with symbols A, B and C were determined according to Japanese regulations relative to application of agricultural chemicals, and these symbols are defined as follows: […]
A: TLm (48 hrs.) value >10 ppm for carp and TLm (3 hrs.) value >0.5 ppm for water flea, wherein toxicity to fishes is not observed by usual application.
B: TLm (48 hrs.) value 10-0.5 ppm for carp; or TLm (48 hrs.) value >10 ppm for carp and TLm (3 hrs.) value <0.5 ppm for water flea, wherein appreciable toxicity to fishes is not observed by usual application but may be observed when applied to wide area at one time.
C: TLm (48 hrs.) value <0.5 ppm for carp, wherein toxicity to fishes is so strongly observed by usual application that both the application method and application area are strictly restricted.

[4] = test system: brown planthoppers (Nilaparvata lugens Stal); test: Utility Example-1: LC50 on adult brown planthoppers on dipped rice plants; format: in vivo; details: Nilaparvata lugens, 24 h, 25° C., read-out: Pesticidal activity LC50
Protocol: A 1% emulsifiable concentrate of each test compound as prepared by the procedure described in Formulation Example 2 was diluted with water to prepare a test solution of predetermined concentration.
Rice plants, 4 weeks after sowing (cultivated in a pot 6 cm in diameter, 7 seedlings) were dipped in the above solution and after allowing them to dry in the air, the pot was covered with a wire-mesh cage. Then, 30 adult brown planthoppers (Nilaparvata lugens Stal) were released into the cage and the pot was kept in a constant-temperature chamber at 25° C.

[5] = Fish toxicity safety factor (TLm divided by maximum concentration in cover water); set-up: species or system carp; details: in vivo, TLm / maximum concentration in cover water at LC50 application (100 l per 10 ares, 5 cm depth)
Protocol: To further confirm the low toxicity to fish and high pesticidal activity of Compounds (1) and (2) according to this invention as evidenced by the fish toxicity tests with carps and the above tests, fish toxicity safety factors were calculated from the fish toxicity and pesticidal test data. These fish toxicity safety factors are indicators of safety to fish inhabiting a paddy field to which Compounds (1) and (2) may be actually applied for pest control purposes.
It is first assumed that such a pesticidal solution would normally be applied at the rate of 100 l per 10 ares of paddy field. It is also assumed that a solution (100 l) corresponding to the LC50 of the compounds would be applied to 10 ares of a paddy field carrying a cover water with a depth of 5 cm above ground surface and that all the solution would then find its way into the cover water. The expected maximum concentration of the compound in the cover water is then calculated. The fish toxicity safety factor of a pesticidal compound is defined as the value obtained by dividing the TLm (ppm) of the particular compound by the maximum concentration of the compound in cover water. The meaning of the value of the fish toxicity safety factor being one (1) is that the maximum concentration of the particular compound in cover water corresponds to the TLm of said compound. It is understood that when the pesticidal compound having a fish toxicity safety factor value of less than one (1) is applied to a paddy field, it has a risk of destroying the fish inhabiting there, and that the higher the safety factor value, the higher is the safety of the compound to fish.
This fish toxicity safety factor will now be explained in further detailed by taking the trans-isomer of Compound (2) of this invention as an example.
On the other hand, the toxicity to fish of this compound is TLm >10 ppm. Therefore, by dividing the TLm (i.e. >10 ppm) by the above cover water maximum concentration (i.e. 0.36 ppm), we obtain a fish toxicity safety factor of >28. Thus, the concentration of the trans-isomerof Compound (2) which kills 50% of pests corresponds to less than 1/28 of the concentration of the same isomer which kills 50% of fish. In other words, this means that the trans-isomer of Compound (2) is extremely safe to fish.

[6] = test system: green rice leafhoppers (Nephotettix cincticeps Uhler); test: Mortality test with green rice leafhoppers by topical application method; details: Nephotettix cincticeps, in Oryza sativa, 24 h; for mortality at 10 ng: read-out: Pesticidal effect, green rice leafhopper
Protocol: Mortality test with green rice leafhoppers (Nephotettix cincticeps Uhler) by topical application method
Then, the insects were kept at 25° C. with access to rice plant seedlings. The insects were used in groups of 15 individuals each.

[7] = test system: tobacco cutworms (Prodenia litura Fabricius); test: Mortality test with tobacco cutworms by topical application method; format: in vivo; details: 24 h
Protocol: Mortality test with tobacco cutworms (Prodenia litura Fabricius) by topical application method
Using a microsyringe, 0.5 μl of the above solution was dripped onto the thoracic adbominal region of each of 3-instar tobacco cutworm (Prodenia litura Fabricius) larvae. […] The test larvae were used in groups of 20 individuals each.

[8] = Fish toxicity test with guppies; format: in vivo, Lebistes reticulatus; details: guppy, water, guppies, 20° C., read-out: TLm (48 hrs.)
Protocol: (§1) Fish toxicity test with guppies (Lebistes reticulatus)
(§2) To 5 liters of water were added 250 mg of Sorpol SM-200 (trademark, Toho Chemical Co., Ltd.) as a surfactant and 2.5 ml of an acetone solution containing one of the test compounds in a predetermined concentration. The mixture was stirred thoroughly to prepare a test water. Ten female guppies (Lebistes reticulatus) of from 3 to 4 months of age were released into the test water which was maintained at 20° C. and the TLm (median tolerance limit, ppm) was determined.

[9] = test system: guppies (Lebistes reticulatus); test: Fish toxicity test with guppies; format: in vivo; details: Table 1; 48 hrs.
Protocol: as §1, §2

[10] = test system: houseflies (Musca domestica); test: Mortality test with houseflies by topical application method; details: 24 h; for mortality at 0.001 mg: read-out: Pesticidal effect, housefly
Protocol: Mortality test with houseflies (Musca domestica) by topical application method
Each of the compounds according to this invention and the control compounds (Table 2) was accurately weighted and a 0.1% solution of each sample in acetone was prepared. Female adult houseflies (Musca domestica) resistant to organophosphorus pesticides, were anesthetized with ether and 0.5 μl or 1.0 μl of the above solution was micropipetted onto the prothoracic dorsal region of each insect. The insects were then put in a high-walled dish together with feed and the dish was covered with a wire-mesh cover and kept at a temperature of 25° C. The test insects were used in groups of 30 individuals each. After 24 hours the insects were examined for deaths and the percent mortality was calculated.

[11] = Fish toxicity test with killifish; format: in vivo, Orizias latipes; details: water, killifish, 25±1° C., read-out: TLm (48 hrs.)
Protocol: Fish toxicity test with killifish (Orizias latipes)
An acetone solution of one of the test compounds as mentioned in Table 8 was prepared by adding said test compound to 15 ml of acetone. To 10 liters of water was added a predetermined amount of the above acetone solution and the mixture was stirred thoroughly to prepare an aqueous solution containing the test compound in a predetermined concentration. This was used as a test water. After the each test water was moderately aerated, ten killifishes (Orizias latipes) with a body weight of about 0.25 g and a body length of about 2.5 cm were released into said each test water which was maintained at 25±1° C. After 48 hours, the test fish was examined for death. The TLm (median tolerance limit, ppm) was determined.

[12] = read-out: Pesticidal effect, tobacco cutworm

SMILES | mortality at 1 µg/larva [1] | mortality at 10 µg/larva [1] | LC50 at 48 h [2] | LC50 at 6 h [3] | Ranking (carp and water flea) | LC50 [4] | selectivity ratio [5] | mortality at 0.01 µg/female [6] | mortality at 0.1 µg/female [6] | mortality at 1 µg/female [6] | mortality at 10 ng [6] | mortality at 0.001 mg [1] | mortality at 0.0001 mg [7, 12] | LC50 at 48 h [8] | Toxicity to fish TLm, guppy [9] | mortality at 0.5 µg/female [10] | mortality at 1 µg/female [10] | mortality at 0.001 mg [10] | mortality at 0.0001 mg [7] | LC50 at 48 h [11]
CC1(C)[C@H](C(=O)OC(C#N)c2cccc(Oc3ccc(Cl)cc3)c2)[C@@H]1C=C(Cl)Cl (relative stereo) [Compound (G) cis-] | 40% | 100% | 0.013 µg/mL (≈ 0.0288 µM) | 5 µg/mL (≈ 11.1 µM) | C (TLm (48 hrs.) value <0.5 ppm for carp, wherein toxicity to fishes is so strongly observed by usual application that both the application method and application area are strictly restricted.) | 620 µg/mL (≈ 1380 µM) | 0.01 |  |  |  |  |  |  |  |  |  |  |  |  | 
CC1(C)[C@H](C=C(Cl)Cl)[C@H]1C(=O)OC(C#N)c1cccc(Oc2ccc(Cl)cc2)c1 (relative stereo) [Compound (G) trans-] | 85% | 100% | 0.09 µg/mL (≈ 0.2 µM) | 1.7 µg/mL (≈ 3.77 µM) | C (TLm (48 hrs.) value <0.5 ppm for carp, wherein toxicity to fishes is so strongly observed by usual application that both the application method and application area are strictly restricted.) | 380 µg/mL (≈ 843 µM) | 0.12 |  |  |  |  |  |  |  |  |  |  |  |  | 
CC1(C)C(C=C(Cl)Cl)C1C(=O)OCc1cccc(Oc2ccc(Cl)cc2)c1 (stereo not drawn) [Compound (1) cis-/trans- = 20:80] |  |  | 2.6 µg/mL (≈ 6.11 µM) | > 40 µg/mL | B (TLm (48 hrs.) value 10-0.5 ppm for carp; or TLm (48 hrs.) value >10 ppm for carp and TLm (3 hrs.) value <0.5 ppm for water flea, wherein appreciable toxicity to fishes is not observed by usual application but may be observed when applied to wide area at one time.) | 520 µg/mL (≈ 1220 µM) | 2.5 |  |  |  |  |  |  |  |  |  |  |  |  | 
CC1(C)C(C=C(Br)Br)C1C(=O)OC(C#N)c1cccc(Oc2ccccc2)c1 (centres unmarked) [Compound (D), Decamethrin] | 100% | 100% | 0.0051 µg/mL (≈ 0.0101 µM) |  | C (TLm (48 hrs.) value <0.5 ppm for carp, wherein toxicity to fishes is so strongly observed by usual application that both the application method and application area are strictly restricted.) |  |  | 100% | 100% | 100% | 100% | 100% | 100% | < 0.5 µg/mL | < 0.5 ppm | 100% | 100% | 100% |  | 
C#CC(OC(=O)C1C(C=C(Cl)Cl)C1(C)C)c1cccc(Oc2ccccc2)c1 (centres unmarked) [Compound (F)] |  |  |  |  |  |  |  | 100% | 100% | 100% | 100% |  |  | < 0.5 µg/mL | < 0.5 ppm | 100% | 100% | 100% |  | 
CC1(C)C(C=C(Cl)Cl)C1C(=O)OC(C#N)c1cccc(Oc2ccc(Cl)cc2)c1 (stereo not drawn) [Compound (G) cis-/trans- = 50:50] | 90% | 100% | 0.04 µg/mL (≈ 0.0887 µM) |  | C (TLm (48 hrs.) value <0.5 ppm for carp, wherein toxicity to fishes is so strongly observed by usual application that both the application method and application area are strictly restricted.) | 450 µg/mL (≈ 998 µM) | 0.04 | 100% | 100% | 100% | 100% | 90% | 65% | < 1 µg/mL | < 1.0 ppm | 100% | 100% | 100% | 65% | 0.15 µg/mL (≈ 0.333 µM)
